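96-well plates; 48 h exposure; 5 concentrations. Endpoints by linear interpolation between flanking doses. Not reached: highest tested concentration assigned. GI50 is the concentration that inhibits growth by half.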 Active and inactive are the calls of the source. Cut-off read from the data, not from the text of the source: active = GI50 up to about 1.1 µM and inactive = higher. A value given as a limit tells only on which side of the number the result lay.

Test systems include M14; RPMI-8226; EKVX; Hs-578T; HOP-62; 786-0; MDA-N; SF-295; SNB-19; UACC-62; DU-145; K562; MOLT-4; UACC-257; SF-539; PC-3; MDA-MB-231; A549; NCI-H522; KM12.
Common to all, as to experiment: inhibition of tumour cell growth, NCI panel, 48 h

In the case of `CN(C)CC1CCC/C(=C\c2ccc(OC(=O)/C=C/c3ccc(Cl)c(Cl)c3)cc2)C1=O` (stereo not given), the GI50 with M14 was 5.68 µM (inactive); in the assay on RPMI-8226, 0.164 µM (active); with EKVX, 5.9 µM (inactive); in the assay on Hs-578T, 4.21 µM (inactive); with HOP-62, 2.75 µM (inactive); with 786-0, 1.83 µM (inactive). Moreover, the GI50 in the assay with MDA-N is 3.37 µM (inactive); in the assay on SF-295 it was 7.11 µM (inactive); with SNB-19, 10.5 µM (inactive); in the assay on UACC-62 it was 12.3 µM (inactive); in the assay with DU-145 it was 8.97 µM (inactive); with K562, 1.94 µM (inactive). The GI50 is 1.66 µM (inactive) in the assay with MOLT-4; 9.91 µM (inactive) in the assay with UACC-257; 2.59 µM (inactive) in the assay with SF-539; 3.33 µM (inactive) in the assay on PC-3; 3.71 µM (inactive) in the assay with MDA-MB-231; 5.86 µM (inactive) in the assay on A549. Also, the GI50 in the assay with NCI-H522 is 3.37 µM (inactive); in the assay with KM12, 1.61 µM (inactive).

As to `COc1ccc2[nH]c(C(=O)N3CC(CCl)c4ccc([N+](=O)[O-])cc43)cc2c1` (stereo not given), the GI50 in the assay with M14 is > 100 µM (inactive); in the assay with RPMI-8226, > 100 µM (inactive); in the assay with EKVX, 54.1 µM (inactive); in the assay on Hs-578T it was 37 µM (inactive); in the assay with HOP-62, > 100 µM (inactive); with 786-0, > 100 µM (inactive). For the same compound, the GI50 with MDA-N, with SF-295, in the assay on SNB-19, in the assay on UACC-62, with DU-145 and with K562 was > 100 µM (inactive) in each case. Besides, the GI50 was > 100 µM (inactive) with MOLT-4; > 100 µM (inactive) in the assay with UACC-257; > 90.4 µM (inactive) in the assay on SF-539; > 100 µM (inactive) in the assay with PC-3; > 23.4 µM (inactive) in the assay with MDA-MB-231; > 100 µM (inactive) with A549. Further, the values for the GI50 with NCI-H522 and in the assay with KM12 were 75 µM (inactive) and > 31.8 µM (inactive), respectively.

`OC(CC(CC(O)(C(F)(F)Cl)C(F)(F)Cl)=NNc1ccccc1)(C(F)(F)Cl)C(F)(F)Cl`: the GI50 was 4.26 µM (inactive) in the assay on M14; > 10 µM (inactive) in the assay on RPMI-8226; 3.27 µM (inactive) in the assay with EKVX; 2.45 µM (inactive) with Hs-578T; 3.43 µM (inactive) with HOP-62; 4.54 µM (inactive) in the assay with 786-0. Moreover, the GI50 in the assay on MDA-N was 2.87 µM (inactive); in the assay with SF-295 it was 2.91 µM (inactive); in the assay on SNB-19, 4.01 µM (inactive); in the assay on UACC-62, 1.66 µM (inactive); in the assay with DU-145, 3.3 µM (inactive); in the assay on K562, > 10 µM (inactive). Also, the GI50 was > 10 µM (inactive) in the assay on MOLT-4; 1.88 µM (inactive) in the assay with UACC-257; 2.95 µM (inactive) in the assay on SF-539; 1.35 µM (inactive) with PC-3; 2.78 µM (inactive) in the assay with MDA-MB-231; 3.41 µM (inactive) in the assay on A549. Also, the figures for the GI50 in the assay on NCI-H522 and in the assay on KM12 were 4.4 µM (inactive) and 3.12 µM (inactive), respectively.

With `Clc1ccc(C2c3ccccc3-c3nc4ccccc4n32)cc1` (stereo not given), the GI50 was 31.8 µM (inactive) in the assay on M14; 9.75 µM (inactive) with RPMI-8226; 16.5 µM (inactive) in the assay with EKVX; 4.92 µM (inactive) in the assay with Hs-578T; 16.9 µM (inactive) in the assay with HOP-62; 17.7 µM (inactive) in the assay on 786-0. Besides, the GI50 with MDA-N is 51.3 µM (inactive); in the assay with SF-295, 3.48 µM (inactive); in the assay on SNB-19, 31.7 µM (inactive); in the assay with UACC-62 it was 26.3 µM (inactive); in the assay with DU-145, 58.2 µM (inactive); in the assay on K562, > 22.4 µM (inactive). In addition, the GI50 is 8.09 µM (inactive) with MOLT-4; 53.7 µM (inactive) in the assay on UACC-257; > 54.7 µM (inactive) in the assay on SF-539; 19.4 µM (inactive) with PC-3; > 84.1 µM (inactive) in the assay on MDA-MB-231; 7.33 µM (inactive) in the assay on A549. In addition, the GI50 was 11.6 µM (inactive) in the assay on NCI-H522 and 13 µM (inactive) with KM12.

As for `Cc1ccc(S(=O)(=O)NNCNC(=O)c2ccccc2)cc1`, the GI50 with M14 is > 100 µM (inactive); in the assay on RPMI-8226, 76 µM (inactive); in the assay on EKVX, > 100 µM (inactive); in the assay on Hs-578T, > 100 µM (inactive); in the assay with HOP-62, > 100 µM (inactive); in the assay with 786-0 it was > 100 µM (inactive). Also, the GI50 in the assay with MDA-N is 33.9 µM (inactive); in the assay on SF-295, > 100 µM (inactive); in the assay on SNB-19, > 100 µM (inactive); with UACC-62 it was 71.6 µM (inactive); with DU-145, > 100 µM (inactive); in the assay on K562, 64.4 µM (inactive). Moreover, the GI50 was 24.2 µM (inactive) with MOLT-4; > 100 µM (inactive) with UACC-257; > 100 µM (inactive) in the assay on SF-539; > 100 µM (inactive) with PC-3; > 100 µM (inactive) in the assay on MDA-MB-231; > 100 µM (inactive) in the assay with A549. Also, the GI50 is > 100 µM (inactive) in the assay with NCI-H522 and 85.1 µM (inactive) in the assay with KM12.

As for `COC1=C(OC)C(=O)C(Cc2c(C)nc3sccn23)=C(C)C1=O`, the GI50 with M14 was 17 µM (inactive); in the assay on RPMI-8226 it was 2.48 µM (inactive); with EKVX it was 14.1 µM (inactive); with Hs-578T, 19.3 µM (inactive); in the assay on HOP-62, 17.5 µM (inactive); in the assay with 786-0, 19.1 µM (inactive). Moreover, the GI50 was 12.7 µM (inactive) with MDA-N; 15 µM (inactive) in the assay on SF-295; 16 µM (inactive) in the assay on SNB-19; 10.6 µM (inactive) in the assay with UACC-62; 18.1 µM (inactive) in the assay with DU-145; 18.7 µM (inactive) in the assay on K562. Also, the GI50 in the assay on MOLT-4 was 2.01 µM (inactive); in the assay on UACC-257 it was 5.65 µM (inactive); with SF-539 it was 16.5 µM (inactive); with PC-3, 16.3 µM (inactive); in the assay with MDA-MB-231 it was 13.1 µM (inactive); with A549, 11 µM (inactive). Also, the GI50 with NCI-H522 is 6.64 µM (inactive); in the assay on KM12, 15.2 µM (inactive).

Consider `CN(C)c1ccc(C(C#N)N2CCCN(C(C#N)c3ccc(N(C)C)cc3)C2c2ccc(N(C)C)cc2)cc1` (stereo not given), for which the GI50 in the assay with M14, in the assay on RPMI-8226, in the assay with EKVX, in the assay on Hs-578T, with HOP-62 and with 786-0 was > 100 µM (inactive) throughout. Besides, the GI50 in the assay with MDA-N, in the assay with SF-295, in the assay with SNB-19, in the assay on UACC-62, in the assay on DU-145 and with K562 was > 100 µM (inactive) in each case. In addition, the GI50 in the assay with MOLT-4, with UACC-257, in the assay on SF-539, in the assay on PC-3, in the assay on MDA-MB-231 and in the assay with A549 was > 100 µM (inactive) in each case. In addition, the GI50 in the assay with NCI-H522 and in the assay on KM12 was > 100 µM (inactive) each time.
